Values quoted from earlier work as cited in patent US20250057162A1, “FUNGICIDAL COMPOSITIONS” (SYNGENTA CROP PROTECTION AG, priority 2021, published 2025).

System: Mycosphaerella graminicola (Septoria tritici)

COc1ccnc(C(=O)N[C@@H](C)C(=O)O[C@@H](C)C(c2ccc(F)cc2)c2ccc(F)cc2)c1OC(C)=O [Florylpicoxamid, (1S)-2,2-bis(4-fluorophenyl)-1-methylethyl N-{[3-(acetyloxy)-4-methoxy-2-pyridyl]carbonyl}-L-alaninate]
control of wheat leaf blotch disease (in words): particularly effective
